In patent US20250163066A1, “PROTACs of MALT1” (TEGID THERAPEUTICS, INC., priority 2022, published 2025):

How the values were obtained:
MALT1 [1] = target: T1, MALT1 (Homo sapiens (Human), UniProt Q9UDY8); experiment: MALT1 enzymatic activity inhibition (fluorescence, Ac-LRSR-AMC substrate); format: biochemical; conditions: recombinant MALT1 1.5 ng/μl, Ac-LRSR-AMC 1 μM
How it was run: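 Recombinant human MALT1 (1.5 ng/μl final) preincubated 10 min at rt with compounds in 50 mM HEPES pH 7.2-7.4, 100 mM NaCl, 900 mM sodium citrate, 10 mM DTT; 1 μM Ac-LRSR-AMC then added. AMC fluorescence read at start and after 30 min 37 °C plus 30 min rt; difference gives signal, % inhibition fitted to IC50.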

[2] = tested on: IL-2 MALT1-dependent release in Jurkat cells; experiment: cells; format: cell-based; conditions: Homo sapiens; for EC50: Jurkat cells stimulated with antiCD3/antiCD28 for 24 h, IL-2 ELISA, read-out: EC50, IL-2 MALT1-dependent release inhibition; for CC50: Jurkat, 24 h, read-out: CC50 (IL-2 MALT1-dependent release inhibition)
Procedure: Jurkat cells (ATCC, USA) (100,000 cells/well in a 96 well flat-bottom plate (Greiner, #655061) were cultured in RPMI 1640 supplemented with 10% FBS at 37° C., 5% CO2 in a humidified cell culture incubator for 0.5-1 h. Then 10 μl/well 15× compound (or DMSO) was added in duplicates. Cells were incubated with compound in a humidified cell culture incubator for 0.5-1 h. After the incubation, 10 μl/well of 15× human antiCD3 HIT3a antibody (BioLegend) together with 10 μl/well of 15× human antiCD28 antibody (Invitrogen) were added to stimulate Jurkat cells for 24 h. After 24 h of stimulation, supernatants were collected and IL-2 levels in supernatants were assessed using IL-2 ELISA kit (Vector-Best, Russia).

MALT1 [3] = target: T1, MALT1; experiment: MALT1 degradation in JeKo-1 cells (capillary Western blotting); format: cell-based; conditions: 48 h incubation, read-out: EC50 for MALT1 degradation
Procedure: JeKo-1 cells (ATCC, USA) were cultured in RPMI 1640 supplemented with 10% FBS at 37° C., 5% CO2 in a humidified cell culture incubator. 1 ml of cells (1*10^6 cells per well) was transferred to each well of a 24-well plate (Greiner, #662160). Then 40 μl/well 25× compound (or DMSO) were added. Cells were incubated with compound in a humidified cell culture incubator for 48 h. At the end of incubation, cell suspension was transferred from wells into 2 ml tubes (Greiner, #623201), centrifuged at 300 g for 5 min and the supernatant was discarded. Then cell pellets were washed with cooled PBS. Cell lysates were prepared by adding 40 μl of RIPA lysis buffer (ProteinSimple, #040-483) to the cell pellet. […] Next, protein concentration in cell lysates was determined by Pierce™ Coomassie (Bradford) Protein Assay Kit (Thermo Scientific, #23200) according to manufacturer's instructions.
Levels of MALT1, Bcl10 and CYLD proteins in prepared cell lysates were assessed in capillary Western blotting system Jess (JS-3030, ProteinSimple) using 12-230 kDa Separation Module (ProteinSimple #SM-W004), Anti-Mouse Detection Module (ProteinSimple #DM-002) and Anti-Rabbit Detection Module (ProteinSimple #DM-001) according to manufacturer's instructions. […] Beta-actin was used as a loading control detected by anti-beta-actin primary antibodies (RnD Systems, #MAB8929) at 1:100 dilution.

T1 sequence (Q9UDY8 whole entry): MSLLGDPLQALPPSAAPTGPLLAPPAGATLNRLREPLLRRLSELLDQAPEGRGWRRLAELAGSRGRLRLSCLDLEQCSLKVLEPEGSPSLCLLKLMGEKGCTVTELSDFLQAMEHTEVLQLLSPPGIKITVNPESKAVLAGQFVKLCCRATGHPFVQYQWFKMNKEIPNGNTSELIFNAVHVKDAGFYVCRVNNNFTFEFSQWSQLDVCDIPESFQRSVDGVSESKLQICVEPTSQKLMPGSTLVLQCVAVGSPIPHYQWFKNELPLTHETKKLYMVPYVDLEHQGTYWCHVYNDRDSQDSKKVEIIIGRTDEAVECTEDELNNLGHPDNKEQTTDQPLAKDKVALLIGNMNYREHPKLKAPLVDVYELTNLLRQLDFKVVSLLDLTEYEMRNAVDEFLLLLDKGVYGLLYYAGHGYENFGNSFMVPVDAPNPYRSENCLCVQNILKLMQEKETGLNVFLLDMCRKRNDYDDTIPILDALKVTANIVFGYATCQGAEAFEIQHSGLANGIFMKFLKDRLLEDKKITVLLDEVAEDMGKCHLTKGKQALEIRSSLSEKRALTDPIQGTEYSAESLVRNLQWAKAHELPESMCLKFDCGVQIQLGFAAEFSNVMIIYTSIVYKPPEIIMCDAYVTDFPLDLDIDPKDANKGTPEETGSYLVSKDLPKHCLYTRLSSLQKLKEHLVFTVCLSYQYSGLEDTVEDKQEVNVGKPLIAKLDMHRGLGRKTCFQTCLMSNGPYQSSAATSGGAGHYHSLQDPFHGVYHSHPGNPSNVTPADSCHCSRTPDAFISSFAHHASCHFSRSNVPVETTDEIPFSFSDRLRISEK

Structure (SMILES) | EC50 (MALT1 [1]) [µM] | EC50 [2] [nM] | DC50 (MALT1 [3]) [nM] | CC50 [2] [nM]
Cc1cc(NC(=O)Nc2cnc3ccnn3c2C2CCCO2)cnc1-c1noc(CCCCCC(=O)N2CCN(c3ccc4c(c3)CN(C3CCC(=O)NC3=O)C4=O)CC2)n1 (stereo not drawn) [Compound 2, 1-[6-[5-[6-[4-[2-(2,6-dioxo-3-piperidyl)-1-oxo-isoindolin-5-yl]piperazin-1-yl]-6-oxo-hexyl]-1,2,4-oxadiazol-3-yl]-5-methyl-3-pyridyl]-3-(7-tetrahydrofuran-2-ylpyrazolo[1,5-a]pyrimidin-6-yl)urea] | ≤ 0.2 | 500 to 1000 | 85 | 
O=C1CCC(N2Cc3cc(N4CCN(CCCCCc5nc(-c6ncc(NC(=O)Nc7cnc8ccnn8c7C7CCCC7)cc6C(F)(F)F)no5)CC4)ccc3C2=O)C(=O)N1 (stereo not drawn) [Compound 108, 1-(7-cyclopentylpyrazolo[1,5-a]pyrimidin-6-yl)-3-[6-[5-[5-[4-[2-(2,6-dioxo-3-piperidyl)-1-oxo-isoindolin-5-yl]piperazin-1-yl]pentyl]-1,2,4-oxadiazol-3-yl]-5-(trifluoromethyl)-3-pyridyl]urea] | ≤ 0.2 | < 500 |  | 
Cc1cc(NC(=O)Nc2cnc3ccnn3c2C2CCCCC2)cnc1-c1noc(CCCCCC(=O)Nc2ccc3c(c2)CN(C2CCC(=O)NC2=O)C3=O)n1 (stereo not drawn) [Compound 109, 6-[3-[5-[(7-cyclohexylpyrazolo[1,5-a]pyrimidin-6-yl)carbamoylamino]-3-methyl-2-pyridyl]-1,2,4-oxadiazol-5-yl]-N-[2-(2,6-dioxo-3-piperidyl)-1-oxo-isoindolin-5-yl]hexanamide] | 0.2 to 0.5 |  |  | < 500
CC(C)c1c(NC(=O)Nc2ccc(-c3nnc(CCCCCC(=O)N4CCN(c5ccc6c(c5)CN(C5CCC(=O)NC5=O)C6=O)CC4)o3)nc2)cnc2ccnn12 (stereo not drawn) [Compound 110, 1-[6-[5-[6-[4-[2-(2,6-dioxo-3-piperidyl)-1-oxo-isoindolin-5-yl]piperazin-1-yl]-6-oxo-hexyl]-1,3,4-oxadiazol-2-yl]-3-pyridyl]-3-(7-isopropylpyrazolo[1,5-a]pyrimidin-6-yl)urea] | 1 to 5 |  |  | > 5000
O=C1CCC(N2Cc3cc(N4CCN(C(=O)CCCCCc5nnc(-c6ccc(NC(=O)Nc7cnc8ccnn8c7C7CCCC7)cn6)o5)CC4)ccc3C2=O)C(=O)N1 (stereo not drawn) [Compound 111, 1-(7-cyclopentylpyrazolo[1,5-a]pyrimidin-6-yl)-3-[6-[5-[6-[4-[2-(2,6-dioxo-3-piperidyl)-1-oxo-isoindolin-5-yl]piperazin-1-yl]-6-oxo-hexyl]-1,3,4-oxadiazol-2-yl]-3-pyridyl]urea] | 1 to 5 |  |  | > 5000
Cc1cc(NC(=O)Nc2cnc3ccnn3c2C2CCC2)cnc1-c1noc(CCCCC(=O)N2CCN(c3ccc4c(c3)CN(C3CCC(=O)NC3=O)C4=O)CC2)n1 (stereo not drawn) [Compound 112, 1-(7-cyclobutylpyrazolo[1,5-a]pyrimidin-6-yl)-3-[6-[5-[5-[4-[2-(2,6-dioxo-3-piperidyl)-1-oxo-isoindolin-5-yl]piperazin-1-yl]-5-oxo-pentyl]-1,2,4-oxadiazol-3-yl]-5-methyl-3-pyridyl]urea] | ≤ 0.2 |  |  | > 5000
O=C1CCC(N2Cc3cc(N4CCN(C(=O)CCCCCc5nc(-c6ncc(NC(=O)Nc7cnc8ccnn8c7C7CCC7)cc6Cl)no5)CC4)ccc3C2=O)C(=O)N1 (stereo not drawn) [Compound 116, 1-[5-chloro-6-[5-[6-[4-[2-(2,6-dioxo-3-piperidyl)-1-oxo-isoindolin-5-yl]piperazin-1-yl]-6-oxo-hexyl]-1,2,4-oxadiazol-3-yl]-3-pyridyl]-3-(7-cyclobutylpyrazolo[1,5-a]pyrimidin-6-yl)urea] | ≤ 0.2 |  |  | < 500
O=C1CCC(N2Cc3cc(N4CCN(C(=O)CCCCCc5nc(-c6ncc(NC(=O)Nc7cnc8ccnn8c7C7CCCCC7)cc6Cl)no5)CC4)ccc3C2=O)C(=O)N1 (stereo not drawn) [Compound 118, 1-[5-chloro-6-[5-[6-[4-[2-(2,6-dioxo-3-piperidyl)-1-oxo-isoindolin-5-yl]piperazin-1-yl]-6-oxo-hexyl]-1,2,4-oxadiazol-3-yl]-3-pyridyl]-3-(7-cyclohexylpyrazolo[1,5-a]pyrimidin-6-yl)urea] | ≤ 0.2 |  |  | < 500
O=C1CCC(N2Cc3cc(N4CCN(CCCCCCc5nc(-c6ncc(NC(=O)Nc7cnc8ccnn8c7C7CCCCC7)cc6Cl)no5)CC4)ccc3C2=O)C(=O)N1 (stereo not drawn) [Compound 119, 1-[5-chloro-6-[5-[6-[4-[2-(2,6-dioxo-3-piperidyl)-1-oxo-isoindolin-5-yl]piperazin-1-yl]hexyl]-1,2,4-oxadiazol-3-yl]-3-pyridyl]-3-(7-cyclohexylpyrazolo[1,5-a]pyrimidin-6-yl)urea] | ≤ 0.2 |  |  | < 500
O=C1CCC(N2Cc3cc(N4CCN(C(=O)CCCc5nc(-c6ncc(NC(=O)Nc7cnc8ccnn8c7C7CCCCC7)cc6Cl)no5)CC4)ccc3C2=O)C(=O)N1 (stereo not drawn) [Compound 120, 1-[5-chloro-6-[5-[4-[4-[2-(2,6-dioxo-3-piperidyl)-1-oxo-isoindolin-5-yl]piperazin-1-yl]-4-oxo-butyl]-1,2,4-oxadiazol-3-yl]-3-pyridyl]-3-(7-cyclohexylpyrazolo[1,5-a]pyrimidin-6-yl)urea] | ≤ 0.2 |  |  | < 500
Cc1cc(NC(=O)Nc2cnc3ccnn3c2C2CCCCC2)cnc1-c1noc(CCCCCCN2CCN(c3ccc4c(c3)CN(C3CCC(=O)NC3=O)C4=O)CC2)n1 (stereo not drawn) [Compound 122, 1-(7-cyclohexylpyrazolo[1,5-a]pyrimidin-6-yl)-3-[6-[5-[6-[4-[2-(2,6-dioxo-3-piperidyl)-1-oxo-isoindolin-5-yl]piperazin-1-yl]hexyl]-1,2,4-oxadiazol-3-yl]-5-methyl-3-pyridyl]urea] | ≤ 0.2 |  |  | < 500
Cc1cc(NC(=O)Nc2cnc3ccnn3c2C2CCCCC2)cnc1-c1noc(CCCC(=O)Nc2ccc3c(c2)CN(C2CCC(=O)NC2=O)C3=O)n1 (stereo not drawn) [Compound 123, 4-[3-[5-[(7-cyclohexylpyrazolo[1,5-a]pyrimidin-6-yl)carbamoylamino]-3-methyl-2-pyridyl]-1,2,4-oxadiazol-5-yl]-N-[2-(2,6-dioxo-3-piperidyl)-1-oxo-isoindolin-5-yl]butanamide] | ≤ 0.2 |  |  | < 500
Cc1cc(NC(=O)Nc2cnc3ccnn3c2C2CCCCC2)cnc1-c1noc(CCCCC(=O)N2CCN(c3ccc4c(c3)CN(C3CCC(=O)NC3=O)C4=O)CC2)n1 (stereo not drawn) [Compound 124, 1-(7-cyclohexylpyrazolo[1,5-a]pyrimidin-6-yl)-3-[6-[5-[5-[4-[2-(2,6-dioxo-3-piperidyl)-1-oxo-isoindolin-5-yl]piperazin-1-yl]-5-oxo-pentyl]-1,2,4-oxadiazol-3-yl]-5-methyl-3-pyridyl]urea] | ≤ 0.2 |  |  | 1000 to 5000
